These results are taken from patent US5686486A, “4-hydroxy-benzopyran-2-ones and 4-hydroxy-cycloalkyl[b]pyran-2-ones useful to treat retroviral infections” (priority 1995, dated 1997).

“And” between values parts separate entries of the source, which are not always exact repeats. Equal entries are not always repeated. Structures can show the parent of a compound that is named as a salt. Where two headings read alike, the source gives them in different places. Where only a bound is given, the exact number is not on record here.

In test [1] the test system is p55 Processing in vVk-1 infected CV-1 Cells. In words: CV-1 Cell Assay: inhibition of p55 processing in vVK-1 infected CV-1 cells (p24 levels). It is filed as cell-based. The following applies: Cercopithecidae, CV-1, read-out: CV-1 Cell Assay % Inhib. On the procedure:
Inhibition of p55 Processing in vVk-1 infected CV-1 Cells. CV-1 cells are seeded at 2×10^5 cells per well in 24-well Costar dishes and infected 4 to 6 hours later with vVK-1 at 5 plaque-forming units (PFU) per cell. Each compound is dissolved in Dulbecco's Modified Eagles medium (DMEM) containing 2.5% fetal bovine serum and is added to duplicate wells at the indicated final concentration 2 hours after virus addition. After 24 hours, the culture medium is removed and the monolayer washed with 1 mL of phosphate buffered saline (PBS), and the cells lysed by the addition of 0.1 mL of loading buffer (62.5 mM Tris (hydroxymethyl) aminomethane (Tris), pH 6.8, 2.3% sodium dodecyl sulfate (SDS), 5% β-mercaptoethanol, and 10% glycerol). The cell lysates are collected individually, placed in boiling water for 3 minutes, and then 0.025 mL of each sample is subjected to electrophoresis on 12% SDS-polyacrylamide gels. The proteins are electroblotted onto nitrocellulose and analyzed by protein immunoblotting. The primary antibodies are sheep antibody to p24 (International Enzyme, Inc., Fallbrook, Calif.) and the secondary antibody is alkaline-phosphatase-conjugated rabbit antibody to sheep immunoglobulin G (Kirkegaard & Perry Laboratories, Gaithersburg, Md.). The levels of immunoreactive proteins are quantified by densitometry (Bio-Rad, Model 260) with the accompanying 1-D Analyst Software. Inhibition refers to the mean percent decrease in p24 levels determined from the duplicate drug-treated samples compared to the nondrug-treated controls. […] Val-Ile-Amp (also known as N-[1-(cyclohexylmethyl)-2,3-dihydroxy-5-methyl-4-[[[2-methyl-1-[[(2-pyridinylmethyl)amino]carbonyl]butyl]-amino]carbonyl]hexyl]-α-[[(1-naphthalenyloxy)acetyl]amino]-, [1S-[1R*(R*),2S*,3S*,4S*(1R*,2R*)]]-1H-imidazole-4-propanamide) (which was disclosed in International Publication Number WO 87/05302, published 11 Sep. 1987) was also determined in each experiment.

The target in test [2] is T1, HIV-1 protease (Human immunodeficiency virus type 1 group M subtype B, UniProt P04585). In words: biochemical. The following applies: for inhibition at 100 µM: read-out: HIV-1 Protease % Inhib, dose 100.000 uM; for inhibition at 0.41 µM: read-out: HIV-1 Protease % Inhib, dose 0.410 uM; for inhibition at 1.23 µM: read-out: HIV-1 Protease % Inhib, dose 1.230 uM; for inhibition at 3.7 µM: read-out: HIV-1 Protease % Inhib, dose 3.700 uM; for inhibition at 11 µM: read-out: HIV-1 Protease % Inhib, dose 11.000 uM; for inhibition at 33 µM: read-out: HIV-1 Protease % Inhib, dose 33.000 uM; for inhibition at 0.123 µM: read-out: HIV-1 Protease % Inhib, dose 0.123 uM; for inhibition at 0.37 µM: read-out: HIV-1 Protease % Inhib, dose 0.370 uM; for inhibition at 1.1 µM: read-out: HIV-1 Protease % Inhib, dose 1.100 uM; for inhibition at 3.3 µM: read-out: HIV-1 Protease % Inhib, dose 3.300 uM; for inhibition at 10 µM: read-out: HIV-1 Protease % Inhib, dose 10.000 uM; for inhibition at 30 µM: read-out: HIV-1 Protease % Inhib, dose 30.000 uM. The procedure, abridged:
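Percent inhibition derived from fluorescent cleavage product separated by filtration after streptavidin-bead capture of intact biotin/FITC substrate. Reaction: enzyme (10 μl, 0.1 μM stock) with substrate (20 μl, 0.2 μM stock) and compound, 1 h at room temperature in dark, pH 5.5 acetate buffer with 1.0 M NaCl and 0.05% NP-40.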

In test [3] the target is T1, HIV-1 protease. In words: biochemical. The essentials:
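Enzyme (40 nM stock) and substrate (200 μM stock) incubated with inhibitor, 24–48 two-fold serial concentrations, for 90 min at room temperature, then quenched with avidin beads. Nonlinear least-squares analysis gives Ki; a known-Ki inhibitor validates each run.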

For the molecule `CCCC(c1ccccc1)c1c(O)c2ccccc2oc1=O` (stereo not shown) [Example 10, 4-Hydroxy-3-(1-phenylbutyl)-coumarin], in test [1], the inhibition at 100 µM worked out at 0% and the inhibition at 300 µM is 57%. The molecule also registered an IC50 in test [2] (HIV-1 Protease IC50) of 1710 nM. The inhibition at 0.098 µM in test [2] (read-out: HIV-1 Protease % Inhib, dose 0.098 uM) is < 10%. Moreover, in test [2] (read-out: HIV-1 Protease % Inhib, dose 0.196 uM), the inhibition at 0.196 µM was < 10%. Also, the inhibition at 0.78 µM in test [2] (read-out: HIV-1 Protease % Inhib, dose 0.780 uM) was determined as 33.2%. The inhibition at 1.56 µM in test [2] (read-out: HIV-1 Protease % Inhib, dose 1.560 uM) came out at 53.6%. Moreover, the inhibition at 12.5 µM in test [2] (read-out: HIV-1 Protease % Inhib, dose 12.500 uM) was determined as 91.5%. The inhibition at 25 µM in test [2] (read-out: HIV-1 Protease % Inhib, dose 25.000 uM) worked out at 88%. For the same molecule, the inhibition at 50 µM in test [2] (read-out: HIV-1 Protease % Inhib, dose 50.000 uM) is 102%. The inhibition at 100 µM in test [2] stood at 109%.

`CC(C)(C)C(c1ccccc1)c1c(O)c2ccccc2oc1=O` (stereo not shown) [Example 152, 3-(2,2-Dimethyl-1-phenyl-propyl)-4-hydroxy-chromen-2-one] gave a Ki in test [3] (HIV-1 FITC KI) of 1010 nM. Further, in test [2], the inhibition at 0.41 µM was < 10%, the inhibition at 1.23 µM is 14.2%, the inhibition at 3.7 µM was found to be 35.5% and the inhibition at 11 µM worked out at 73.7%. Also, in test [2], the inhibition at 33 µM is 102% and the inhibition at 100 µM worked out at 110%.

Turning to `O=c1oc2c(c(O)c1C(c1ccccc1)C1CC1)CCCCCC2CC1CC1` (stereo not shown) [Example 121, 10-Cyclopropylmethyl-3-(cyclopropyl-phenyl-methyl)-4-hydroxy-5,6,7,8,9,10-hexahydro-cycloocta[b]pyran-2-one], the Ki in test [3] (read-out: HIV-1 FITC KI) turned out to be 24 nM. Moreover, in test [2], the inhibition at 0.123 µM amounted to 37.1%, the inhibition at 0.37 µM is 74.9%, the inhibition at 1.1 µM was 99.5% and the inhibition at 3.3 µM came to 106%. Also, in test [2], the inhibition at 10 µM was 108% and the inhibition at 30 µM stood at 109%.

`N#Cc1ccc(S(=O)(=O)Nc2cccc(C(c3c(O)c4c(oc3=O)CCCCCC4)C3CC3)c2)cc1` (stereo not shown) [Example 402, Sodium Salt of 4-Cyano-N-[3-[cyclopropyl(5,6,7,8,9,10-hexahydro4-hydroxy-2-oxo-2H-cycloocta[b]pyran-3-yl)methyl]phenyl]-benzenesulfonamide]: in test [3] (read-out: HIV-1 FITC KI), the Ki is 0.62 nM. Moreover, the “HIV-1 Protease % Inhib” value in test [2] (dose 0.123 uM) was determined as 103.69%; in test [2] (dose 0.370 uM), 106.4%; in test [2] (dose 1.100 uM), 110.07%; in test [2] (dose 3.300 uM), 100.22%; in test [2] (dose 10.000 uM) it was 98.03%; in test [2] (dose 30.000 uM) it was 98.47%.

As to `O=c1oc2c(c(O)c1C(c1cccc(NS(=O)(=O)c3ccc(O)cc3)c1)C1CC1)CCCCCC2` (stereo not shown) [Example 407, N-[3-[Cyclopropyl(5,6,7,8,9,10-hexahydro-4-hydroxy-2-oxo-2H-cycloocta[b]pyran-3-yl)methyl]phenyl]-4-hydroxy-benzenesulfonamide], the Ki in test [3] (read-out: HIV-1 FITC KI) came out at 6.6 nM. Moreover, in test [2], the inhibition at 0.123 µM stood at 26.8%, the inhibition at 0.37 µM is 74.7%, the inhibition at 1.1 µM is 91.2% and the inhibition at 3.3 µM amounted to 98.1%. Besides, in test [2], the inhibition at 10 µM is 107% and the inhibition at 30 µM is 113%.

For `O=c1oc2c(c(O)c1C(c1cccc(NS(=O)(=O)c3ccc(CBr)cc3)c1)C1CC1)CCCCCC2` (stereo not shown) [Example 403, 4-(Bromomethyl)-N-[3-[cyclopropyl(5,6,7,8,9,10-hexahydro-4-hydroxy-2-oxo-2H-cycloocta[b]pyran-3-yl)methyl]phenyl]-benzenesulfonamide], in test [3] (read-out: HIV-1 FITC KI), the Ki stood at 5 nM. Also, in test [2], the inhibition at 0.123 µM amounted to 41.6%, the inhibition at 0.37 µM turned out to be 77.5%, the inhibition at 1.1 µM was 92.9% and the inhibition at 3.3 µM turned out to be 94.8%. For the same molecule, in test [2], the inhibition at 10 µM was 95.6% and the inhibition at 30 µM was determined as 97%.

Consider `O=c1oc2c(c(O)c1C(c1cccc(NS(=O)(=O)c3cc(S(=O)(=O)c4ccccc4)cs3)c1)C1CC1)CCCCCC2` (stereo not shown) [Example 298, N-[3-[Cyclopropyl(5,6,7,8,9,10-hexahydro-4-hydroxy-2-oxo-2H-cycloocta[b]pyran-3-yl)methyl]phenyl]4-(phenylsulfonyl)-2-thiophenesulfonamide], for which, in test [3] (read-out: HIV-1 FITC KI), the Ki came to 2.5 nM. Moreover, in test [2], the inhibition at 0.123 µM was determined as 67.4%, the inhibition at 0.37 µM was 84.6%, the inhibition at 1.1 µM came out at 94.6% and the inhibition at 3.3 µM was found to be 97.5%. In addition, in test [2], the inhibition at 10 µM stood at 101% and the inhibition at 30 µM was determined as 100%.

As for `O=c1oc2c(c(O)c1C(c1cccc(NS(=O)(=O)c3cccc4nonc34)c1)C1CC1)CCCCCC2` (stereo not shown) [Example 290, N-[3-[Cyclopropyl(5,6,7,8,9,10-hexahydro-4-hydroxy-2-oxo-2H-cycloocta[b]pyran-3-yl)methyl]phenyl]-4-benzofurazansulfonamide], the Ki in test [3] (read-out: HIV-1 FITC KI) was 2.7 nM. In test [2], the inhibition at 0.123 µM came to 90.3%, the inhibition at 0.37 µM stood at 115%, the inhibition at 1.1 µM turned out to be 123% and the inhibition at 3.3 µM was determined as 119%. In addition, in test [2], the inhibition at 10 µM was 126% and the inhibition at 30 µM was determined as 114%.

Turning to `O=c1oc2ccccc2c(O)c1C1CCN(Cc2ccccc2)c2ccccc21` (stereo not shown) [Example 159, 3-(1-Benzyl-1,2,3,4-tetrahydro-quinolin4-yl)-4-hydroxy-chromin-2-one], in test [3] (HIV-1 FITC KI), the affinity, expressed as Ki, was 2400 nM. In test [2], the inhibition at 0.41 µM was < 10%, the inhibition at 1.23 µM was found to be 14.4%, the inhibition at 3.7 µM was 39.8% and the inhibition at 11 µM stood at 74.3%. In test [2], the inhibition at 33 µM is 84.2% and the inhibition at 100 µM amounted to 91.1%.

As to `O=c1oc2c(c(O)c1C(c1ccccc1)C1CC1)CCCCC2` (stereo not shown) [Example 112, 3-(Cyclopropylphenylmethyl)-6,7,8,9-tetrahydro-4-hydroxy-cyclohepta[b]pyran-2(5H)-one], the Ki in test [3] (read-out: HIV-1 FITC KI) was 96 nM. Further, in test [2] (read-out: HIV-1 Protease % Inhib, dose 1.000 uM), the inhibition at 1 µM turned out to be 70.1%. In test [2], the inhibition at 10 µM is 102% and the inhibition at 100 µM is 105%.

With `O=c1oc2c(c(O)c1C(c1cccc(NS(=O)(=O)C=Cc3ccccc3)c1)C1CC1)CCCCCC2` (stereo not shown) [Example 320, N-[3-[Cyclopropyl(5,6,7,8,9,10-hexahydro-4-hydroxy-2-oxo-2H-cycloocta[b]pyran-3-yl)methyl]phenyl]-2-phenyl-ethenesulfonamide], the Ki in test [3] (read-out: HIV-1 FITC KI) is 3.8 nM and 2.1 nM. Besides, in test [2], the inhibition at 0.123 µM turned out to be 66.4%, the inhibition at 0.37 µM was determined as 78.5%, the inhibition at 1.1 µM was 98.2% and the inhibition at 3.3 µM is 102%. In test [2], the inhibition at 10 µM turned out to be 99.3% and the inhibition at 30 µM stood at 99%.

As to `CC(C)(C)OC(=O)NCCC(=O)Nc1cccc(C(c2c(O)c3c(oc2=O)CCCCCC3)C2CC2)c1` (stereo not shown) [Example 196, Carbamic acid, [3-[[3-[cyclopropyl(5,6,7,8,9,10-hexahydro-4-hydroxy-2-oxo-2H-cycloocta[b]pyran-3-yl)methyl]phenyl]amino]-3-oxopropyl]-, 1,1-dimethylethyl ester], in test [3] (read-out: HIV-1 FITC KI), the Ki is 3 nM. In test [2], the inhibition at 0.123 µM came to 68%, the inhibition at 0.37 µM was 81.2%, the inhibition at 1.1 µM stood at 91.8% and the inhibition at 3.3 µM came to 97.9%. In test [2], the inhibition at 10 µM worked out at 105% and the inhibition at 30 µM is 95.8%.
